In ChEMBL document CHEMBL1138331, “Potent antimalarial activity of 2-aminopyridinium salts, amidines, and guanidines” (J Med Chem, 2007):

Key:
Plasmodium falciparum = assay: microbe, parasite or virus in culture; conditions: Nigerian, 48 h
Description: Antimalarial activity against Plasmodium falciparum Nigerian in human erythrocytes after 48 hrs

Description for physchem: Dissociation constant, pKa by potentiometric titration

Structure (SMILES) | pKa (physchem) | IC50 (Plasmodium falciparum) [nM]
CCOC(=N)CCCCCCCCCCCCC(=N)OCC | 7.6 | 52000
N=c1n(CCCCCCCCCCCCn2c(=N)n(Cc3ccccc3)c3ccccc32)c2ccccc2n1Cc1ccccc1 | 9.4 | 450
CCN(CC)CCCCCCCCCCCCN(CC)CC |  | 540
CCN(CC)CCCCCCCCCCCCCCCCN(CC)CC |  | 110
C(CCCCCCCCN1CCCC1)CCCCCCCN1CCCC1 |  | 110
OCC1CCCN1CCCCCCCCCCCCCCCCN1CCCC1CO (stereo unspecified) |  | 160
CCCCCCCCCCCC[n+]1ccc(C)cc1N |  | 1550
Nc1ccc(-c2ccccc2)c[n+]1CCCc1ccc(CCC[n+]2cc(-c3ccccc3)ccc2N)cc1 | 12.8 | 13
Cc1cc[n+](CCCCCCCC[n+]2ccc(C)cc2N)c(N)c1 |  | 7.2
N=c1sc2ccccc2n1CCCCCCCCCCCCn1c(=N)sc2ccccc21 |  | 4000
Cn1c(=N)n(CCCCCCCCCCCCn2c(=N)n(C)c3ccccc32)c2ccccc21 | 11.9 | 65
FC(F)(F)c1ccc(OCC2CCCN2CCCCCCCCCCCCCCCCN2CCCC2COc2ccc(C(F)(F)F)cc2)cc1 (stereo unspecified) |  | 5400
C[N+]1(CCCCCCCCCCCCCCCC[N+]2(C)CCCC2COc2ccc(C(F)(F)F)cc2)CCCC1COc1ccc(C(F)(F)F)cc1 (stereo unspecified) |  | 29
c1c[nH]c(CCCCCCCCCCCCc2ncc[nH]2)n1 | 9.8 | 1650
c1ccc2[nH]c(CCCCCCCCCCCCc3nc4ccccc4[nH]3)nc2c1 | 9 | 1800
c1cn(CCCCCCCCCCCCn2ccnc2)cn1 |  | 2000

Structure (SMILES) | pKa (physchem) | IC50 (Plasmodium falciparum) [nM]
C(CCCCCCN/C(=N\C1CCCCC1)NC1CCCCC1)CCCCCN/C(=N\C1CCCCC1)NC1CCCCC1 |  | 21
N=C(N)CCCCCCCCCCCCCCCCC(=N)N | 13.2 | 100
CN1CCN=C1CCCCCCCCCCCCC1=NCCN1C | 11 | 43
CN(C)C(=N)CCCCCCCCCCCCC(=N)N(C)C | 12.8 | 6.3
CCN(CC)CCOCCCCCCCCCCCCOCCN(CC)CC |  | 120
Cc1nccn1CCCCCCCCCCCCn1ccnc1C |  | 270
N=c1sccn1CCCCCCCCCCCCn1ccsc1=N | 10.1 | 800
CN(C)/C(=N\C#N)NCCCCCCCCCCCCN/C(=N\C#N)N(C)C |  | 8500
N=c1c2ccccc2ccn1CCCCCCCCCCCCn1ccc2ccccc2c1=N | 11.1 | 260
Cc1ccc(-c2nn(CCCCCCCCCCCCn3nc(-c4ccc(C)cc4)sc3=N)c(=N)s2)cc1 | 8.1 | 5600
N=c1ncc(-c2ccccc2)cn1CCCCCCCCCCCCn1cc(-c2ccccc2)cnc1=N | 11.3 | 12.3
N=c1ncccn1CCCCCCCCCCCCn1cccnc1=N | 11.7 | 145
N=c1sc(-c2cccs2)nn1CCCCCCCCCCCCn1nc(-c2cccs2)sc1=N | 7.8 | 8150
N=c1sc(-c2cccc(Cl)c2)nn1CCCCCCCCCCCCn1nc(-c2cccc(Cl)c2)sc1=N | 7.7 | 18500
N=c1cc2ccc3ccccc3c2nn1CCCCCCCCCCCCn1nc2c(ccc3ccccc32)cc1=N | 11.7 | 50
N=c1sc(-c2ccccc2)nn1CCCCCCCCCCCCn1nc(-c2ccccc2)sc1=N | 8 | 760

Compounds with a lower IC50 (Plasmodium falciparum), results first:

pKa (physchem) | IC50 (Plasmodium falciparum) [nM] | Structure (SMILES)
12.6 | 4.9 | N=C(CCCCCCCCCCCCC(=N)N1CCCCC1)N1CCCCC1
12.6 | 4.5 | Nc1cc(-c2ccccc2)cc[n+]1CCCc1ccc(CCC[n+]2ccc(-c3ccccc3)cc2N)cc1
 | 4 | N=C1CCCN1CCCCCCCCCCCCN1CCCC1=N
13.6 | 3.8 | Cc1cc[n+](CCCCCCCCCCCCCCCC[n+]2ccc(C)cc2N)c(N)c1
12.1 | 3.8 | C(CCCCCCNC1=NCCC1)CCCCCNC1=NCCC1
 | 3.3 | CC[N+](CC)(CC)CCOCCCCCCCCCCCCOCC[N+](CC)(CC)CC
12.7 | 3 | C(CCCCCCNC1=NCCCC1)CCCCCNC1=NCCCC1
 | 3 | C(CCCCCCC1=NC2CCCCC2N1)CCCCCC1=NC2CCCCC2N1 (stereo unspecified)
12.6 | 2.9 | Cc1cc[n+](CCCc2ccc(CCC[n+]3ccc(C)cc3N)cc2)c(N)c1
13.1 | 2.3 | C(CCCCCCC1=NCCCN1)CCCCCC1=NCCCN1
13.5 | 2.3 | Nc1cccc[n+]1CCCCCCCCCCCC[n+]1ccccc1N
 | 2.2 | C(CCCCCCNC1=NCCCCC1)CCCCCNC1=NCCCCC1
12.6 | 2 | CC(=N)NCCCCCCCCCCCCNC(C)=N
13 | 2 | C(CCCCCCC1=NCCN1)CCCCCC1=NCCN1
13.3 | 1.8 | Cc1ccc[n+](CCCCCCCCCCCC[n+]2cccc(C)c2N)c1N
13.5 | 1.7 | C(CCCCCCNC1=NCCN1)CCCCCNC1=NCCN1
14.1 | 1.6 | CN(C)C(=N)NCCCCCCCCCCCCNC(=N)N(C)C
 | 1.5 | C[N+]1(CCCCCCCCCCCCCCCC[N+]2(C)CCCC2CO)CCCC1CO (stereo unspecified)
12.8 | 1.4 | Nc1ccc(Cl)c[n+]1CCCCCCCCCCCC[n+]1cc(Cl)ccc1N
 | 1 | CC1CN=C(CCCCCCCCCCCCC2=NCC(C)N2)N1 (stereo unspecified)
 | 1 | CC1(C)CN=C(CCCCCCCCCCCCC2=NCC(C)(C)N2)N1
13.2 | 0.8 | N=C(CCCCCCCCCCCCC(=N)N1CCCC1)N1CCCC1
 | 0.6 | CC1(C)CN=C(NCCCCCCCCCCCCNC2=NCCCN2)NC1
13.5 | 0.5 | Cc1cc[n+](CCCCCCCCCCCC[n+]2ccc(C)cc2N)c(N)c1
13 | 0.5 | Cc1ccc(N)[n+](CCCCCCCCCCCC[n+]2cc(C)ccc2N)c1
 | 0.5 | C(CCCCCCNC1=NCCCN1)CCCCCNC1=NCCCN1
 | 0.35 | N=C(N)NCCCCCCCCCCCCNC(=N)N
13.6 | 0.3 | N=C(N)CCCCCCCCCCCCC(=N)N
